The subject of this test is Staphylococcus aureus ATCC 29213. Put plainly: Time kill efficacy against Staphylococcus aureus ATCC 29213 (log drop after 30 seconds of exposure). In kind it is cell-based. The procedure: Time kill efficacy experiments were performed against Staphylococcus aureus ATCC 29213 (S aureus). Plates with Tryptic Soy agar (TSA) were inoculated with cultures of S aureus and incubated at 30-35° C. for 24 hours. Bacterial cultures were harvested and sample suspensions were adjusted to contain approximately […] colony-forming units (CFU) per milliliter. […] After 30 seconds of exposure, 1 mL of the test suspension was removed and added to 9.0 ml of Dey-Engley neutralizer. One hundred μL of this neutralized suspension was plated in triplicates on TSA plates using an automated spiral plating instrument (Eddyjet 2, Neutec group Inc, New York, USA), with 7 log serial dilution mode. All bacterial plates were incubated at 30-35° C. for 2 days. The log drop values are determined as the difference between the logged CFU in the plates with and without the test article.

On to sodium chlorite, for which the “Δ log reduction in the presence of 0.5% Brij 35 compared to alone” value (0.5% Brij 35 added to 5% povidone-iodine or to 8000 ppm sodium chlorite activated at pH 5, FIGS. 5A-5B) is 1.6. In addition, the “Δ log reduction in the presence of 0.5% Pluronic F-127 compared to alone” value (0.5% Pluronic F-127 added to 5% povidone-iodine or to 8000 ppm sodium chlorite activated at pH 5, FIGS. 5A-5B) was 1.46. For the same substance, the “Δ log reduction in the presence of 0.5% polysorbate 80 compared to alone” value (0.5% polysorbate 80 added to 5% povidone-iodine or to 8000 ppm sodium chlorite activated at pH 5, FIGS. 5A-5B) is on record as 2.9. Besides, for the setting “800 ppm-8000 ppm sodium chlorite, pH 5 buffer, with 0.5% PS80, FIG. 2”, the “kill efficacy compared to sodium chlorite-only formulations and 5% povidone-iodine” value is recorded as “more efficacious than sodium chlorite-only formulations”. For the same substance, where the note is “4800 ppm and 6400 ppm sodium chlorite, pH 5 buffer, without PS80, FIG. 2”, the “kill efficacy compared to 5% povidone-iodine” value is given as “more efficacious than 5% povidone-iodine”. Besides, the “log reductions, alone” value (8000 ppm sodium chlorite activated at pH 5, alone, FIG. 5B) is recorded as 2.0-3.0. In addition, the “efficacy with 0.5% polysorbate 80 compared to formulations containing 0.5% Brij 35 or 0.5% Pluronic F-127” value (8000 ppm sodium chlorite activated at pH 5, FIG. 5B) is “significantly greater”. In addition, the log reduction is, setting by setting: (8000 ppm sodium chlorite activated with pH 2 buffer, 30 seconds exposure, FIG. 1, n=3) 5.0; (8000 ppm sodium chlorite activated with pH 3 buffer, 30 seconds exposure, FIG. 1, n=3) 5.0; (8000 ppm sodium chlorite activated with pH 4 buffer, 30 seconds exposure, FIG. 1, n=3) 5.0; (8000 ppm sodium chlorite activated with pH 5 buffer, 30 seconds exposure, FIG. 1, n=3) 2.4; (8000 ppm sodium chlorite, pH 4 buffer, absence of both 10% FBS and PS80, FIG. 6) “about 5”; (8000 ppm sodium chlorite, pH 4 buffer, in the presence of 10% FBS (organic load), no PS80, FIG. 6) “about 2”. For the same substance, where the note is “8000 ppm sodium chlorite pH4, 10% FBS, 0.5% PS80, FIG. 6”, the “effect of 0.5% PS80 on log reduction” value is listed as “significantly increased the log reduction”. For the same substance, the “bactericidal effectiveness on addition of PS80 at lower concentrations” value (8000 ppm sodium chlorite pH 4, 10% FBS, PS80 0.015% or 0.025%, FIG. 6) is reported as “not significantly affected”. Under “8000 ppm sodium chlorite pH 4 and 0.5% PS80, with 10% FBS, FIG. 6”, the “effect of the presence of FBS on log reduction” value is recorded as “essentially unaffected”. The “effect of added Brij 35 on kill efficacy” value (8000 ppm sodium chlorite pH 5 plus Brij 35 0.05%-0.5%, FIG. 3) is reported as “enhanced the efficacy”. Also, the “effect of added Pluronic F-127 on kill efficacy” value (8000 ppm sodium chlorite pH 5 plus Pluronic F-127 at 0.25% and 0.5%, FIG. 4, N=1) is listed as “appeared to augment the efficacy”.

The values are drawn from patent US20260102425A1 (Allergan, Inc., priority 2018, published 2026).
